The structures appear in SMILES notation.

T1 sequence (Q9NZQ7 with tags, fused parts or gaps): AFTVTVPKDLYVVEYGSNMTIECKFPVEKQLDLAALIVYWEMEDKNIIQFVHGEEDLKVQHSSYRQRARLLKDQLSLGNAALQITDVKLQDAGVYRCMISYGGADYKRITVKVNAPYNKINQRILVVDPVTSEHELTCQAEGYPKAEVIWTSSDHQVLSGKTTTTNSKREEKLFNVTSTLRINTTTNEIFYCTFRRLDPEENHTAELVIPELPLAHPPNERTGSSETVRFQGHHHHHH

The first assay concerns the target T1, PD-1/PD-L1 (Homo sapiens, UniProt Q9NZQ7).
T1 construct: made in house; host or cells: HEK293T
The assay can be described thus: PD-1/PD-L1 Homogenous Time-Resolved Fluorescence (HTRF) binding assay. Conditions: PD-L1-His 10 nM, PD-1-Ig 20 nM; numeric IC50; read-out: Range or IC50. In a few lines: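 Compounds are tested for blocking the PD-1/PD-L1 interaction in dPBS supplemented with 0.1% BSA and 0.05% (v/v) Tween-20. Tagged proteins are detected with Eu-cryptate anti-Ig and APC anti-His at 1 and 20 nM final.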
(In general: TR-FRET usually uses a lanthanide donor and a delayed reading to cut background.)
Consider `Cc1c(COc2cc(OCc3cncc(C#N)c3)c(CNC(CO)CO)cc2Cl)cccc1-c1cccc(OCCCN2CCCCC2)c1C` [Example 2291, 5-((4-chloro-2-(((1,3-dihydroxypropan-2-yl)amino)methyl)-5-((2,2′-dimethyl-3′-(3-(piperidin-1-yl)propoxy)-[1,1′-biphenyl]-3-yl)methoxy)phenoxy)methyl)nicotinonitrile], for which the IC50 was 1.9 nM.

The same assay, now with this note: PD-L1-His 10 nM, PD-1-Ig 20 nM; value given as range class; read-out: Range or IC50.
For `Cc1c(COc2cc(OCc3cncc(C#N)c3)c(CNC(CO)(CO)CO)cc2Cl)cccc1-c1cccc(OCCCN2CCCC(CO)C2)c1C` (stereo not drawn) [Example 2284, 5-((4-chloro-2-(((1,3-dihydroxy-2-(hydroxymethyl)propan-2-yl)amino)methyl)-5-((3′-(3-(3-(hydroxymethyl)piperidin-1-yl)propoxy)-2,2′-dimethyl-[1,1′-biphenyl]-3-yl)methoxy)phenoxy)methyl)nicotinonitrile], the IC50 was 0.21 to 10 nM.

In the case of `Cc1c(COc2cc(OCc3cncc(C#N)c3)c(CNC(CO)(CO)CO)cc2Cl)cccc1-c1cccc(OCCCN2CC[C@@H](O)C2)c1C` [Example 2285, (R)-5-((4-chloro-2-(((1,3-dihydroxy-2-(hydroxymethyl)propan-2-yl)amino)methyl)-5-((3′-(3-(3-hydroxypyrrolidin-1-yl)propoxy)-2,2′-dimethyl-[1,1′-biphenyl]-3-yl)methoxy)phenoxy)methyl)nicotinonitrile], the IC50 was in the range of 0.21 to 10 nM.

Turning to `Cc1c(COc2cc(OCc3cncc(C#N)c3)c(CN[C@@](C)(CO)C(=O)O)cc2Cl)cccc1-c1cccc(OCCCNC[C@H](O)CO)c1C` [Example 2286, (S)-2-((5-chloro-2-((5-cyanopyridin-3-yl)methoxy)-4-((3′-(3-(((S)-2,3-dihydroxypropyl)amino)propoxy)-2,2′-dimethyl-[1,1′-biphenyl]-3-yl)methoxy)benzyl)amino)-3-hydroxy-2-methylpropanoic Acid], the IC50 was 0.21 to 10 nM.

`Cc1c(COc2cc(OCc3cncc(C#N)c3)c(CNC(C)(CO)CO)cc2Cl)cccc1-c1cccc(OCCCN2CCCCC2)c1C` [Example 2287, 5-((4-chloro-2-(((1,3-dihydroxy-2-methylpropan-2-yl)amino)methyl)-5-((2,2′-dimethyl-3′-(3-(piperidin-1-yl)propoxy)-[1,1′-biphenyl]-3-yl)methoxy)phenoxy)methyl)nicotinonitrile]: the IC50 was 0.21 to 10 nM.

For the compound `Cc1c(COc2cc(OCc3cncc(C#N)c3)c(CNC(C)(CO)CO)cc2Cl)cccc1-c1cccc(OCCCN2CCC(CO)CC2)c1C` [Example 2288, 5-((4-chloro-2-(((1,3-dihydroxy-2-methylpropan-2-yl)amino)methyl)-5-((3′-(3-(4-(hydroxymethyl)piperidin-1-yl)propoxy)-2,2′-dimethyl-[1,1′-biphenyl]-3-yl)methoxy)phenoxy)methyl)nicotinonitrile], the IC50 is 0.21 to 10 nM.

For `Cc1c(COc2cc(OCc3cncc(C#N)c3)c(CNC(C)(CO)CO)cc2Cl)cccc1-c1cccc(OCCCN2CCC[C@@H](CO)C2)c1C` [Example 2289, (R)-5-((4-chloro-2-(((1,3-dihydroxy-2-methylpropan-2-yl)amino)methyl)-5-((3′-(3-(3-(hydroxymethyl)piperidin-1-yl)propoxy)-2,2′-dimethyl-[1,1′-biphenyl]-3-yl)methoxy)phenoxy)methyl)nicotinonitrile], the IC50 was 0.21 to 10 nM.

Take `CC(=O)N[C@@H]1CCN(CCCOc2cccc(-c3cccc(COc4cc(OCc5cncc(C#N)c5)c(CNC(C)(CO)CO)cc4Cl)c3C)c2C)C1` [Example 2290, (R)—N-(1-(3-((3′-((2-chloro-5-((5-cyanopyridin-3-yl)methoxy)-4-(((1,3-dihydroxy-2-methylpropan-2-yl)amino)methyl)phenoxy)methyl)-2,2′-dimethyl-[1,1′-biphenyl]-3-yl)oxy)propyl)pyrrolidin-3-yl)acetamide]: the IC50 lay in the range of 0.21 to 10 nM.

Turning to `Cc1c(COc2cc(OCc3cncc(C#N)c3)c(CNC(CO)CO)cc2Cl)cccc1-c1cccc(OCCCN2CCC[C@@H](CO)C2)c1C` [Example 2292, (R)-5-((4-chloro-2-(((1,3-dihydroxypropan-2-yl)amino)methyl)-5-((3′-(3-(3-(hydroxymethyl)piperidin-1-yl)propoxy)-2,2′-dimethyl-[1,1′-biphenyl]-3-yl)methoxy)phenoxy)methyl)nicotinonitrile], the half-inhibitory concentration (IC50) lay within 0.21 to 10 nM.

Consider `Cc1c(COc2cc(OCc3cncc(C#N)c3)c(CNC(CO)CO)cc2Cl)cccc1-c1cccc(OCCCNC[C@H](O)CO)c1C` [Example 2293, (S)-5-((4-chloro-2-(((1,3-dihydroxypropan-2-yl)amino)methyl)-5-((3′-(3-((2,3-dihydroxypropyl)amino)propoxy)-2,2′-dimethyl-[1,1′-biphenyl]-3-yl)methoxy)phenoxy)methyl)nicotinonitrile], for which the IC50 was in the range of 0.21 to 10 nM.

Consider `Cc1c(COc2cc(OCc3cncc(C#N)c3)c(CNC(CO)CO)cc2Cl)cccc1-c1cccc(OCCCN2CCC(CO)CC2)c1C` [Example 2294, 5-((4-chloro-2-(((1,3-dihydroxypropan-2-yl)amino)methyl)-5-((3′-(3-(4-(hydroxymethyl)piperidin-1-yl)propoxy)-2,2′-dimethyl-[1,1′-biphenyl]-3-yl)methoxy)phenoxy)methyl)nicotinonitrile], for which the IC50 fell in the range of 0.21 to 10 nM.

As to `Cc1c(COc2cc(OCc3cncc(C#N)c3)c(CNC(C)(CO)CO)cc2Cl)cccc1-c1cccc(OCCCN2CCC[C@H](CO)C2)c1C` [Example 2295, (S)-5-((4-chloro-2-(((1,3-dihydroxy-2-methylpropan-2-yl)amino)methyl)-5-((3′-(3-(3-(hydroxymethyl)piperidin-1-yl)propoxy)-2,2′-dimethyl-[1,1′-biphenyl]-3-yl)methoxy)phenoxy)methyl)nicotinonitrile], the IC50 fell in the range of 0.21 to 10 nM.

Regarding `Cc1c(COc2cc(OCc3cncc(C#N)c3)c(CNC(CO)CO)cc2Cl)cccc1-c1cccc(OCCCN2CCC[C@H](CO)C2)c1C` [Example 2296, (S)-5-((4-chloro-2-(((1,3-dihydroxypropan-2-yl)amino)methyl)-5-((3′-(3-(3-(hydroxymethyl)piperidin-1-yl)propoxy)-2,2′-dimethyl-[1,12′-biphenyl]-3-yl)methoxy)phenoxy)methyl)nicotinonitrile], the IC50 lay in the range of 0.21 to 10 nM.

For `Cc1c(COc2cc(OCc3cncc(C#N)c3)c(CNC(C)(CO)CO)cc2Cl)cccc1-c1cccc(OCCCNC[C@H](O)CO)c1C` [Example 2297, (S)-5-((4-chloro-2-(((1,3-dihydroxy-2-methylpropan-2-yl)amino)methyl)-5-((3′-(3-((2,3-dihydroxypropyl)amino)propoxy)-2,2′-dimethyl-[1,1′-biphenyl]-3-yl)methoxy)phenoxy)methyl)nicotinonitrile], the IC50 fell in the range of 0.21 to 10 nM.

For `Cc1c(OCCCN2CC[C@H](CO)[C@H](O)C2)cccc1-c1cccc(COc2cc(OCc3cncc(C#N)c3)c(CNC(CO)CO)cc2Cl)c1Cl` [Example 2298, 5-((4-chloro-5-((2-chloro-3′-(3-((3S,4R)-3-hydroxy-4-(hydroxymethyl)piperidin-1-yl)propoxy)-2′-methyl-[1,1′-biphenyl]-3-yl)methoxy)-2-(((1,3-dihydroxypropan-2-yl)amino)methyl)phenoxy)methyl)nicotinonitrile], the IC50 lay within 0.21 to 10 nM.

The IC50 is the concentration that gives 50% inhibition.
